Measurements as given in patent publication EP4134440B1, “MALVA SYLVESTRIS FERMENTATION PRODUCT AND USE THEREOF” (Kabushiki Kaisha Yakult Honsha, priority 2020, dated 2021).
Converted amounts (≈) assume the structure as drawn.

Columns and labels:
[1] = test system: B16 mouse melanoma cells (B16-F1); test: Melanin production suppression test: intracellular melanin production level; format: cell-based; details: 72 h, three days in 0.5 mM theophylline-containing medium, concentration expressed as evaporation residue concentration
Procedure: (§1) As cells, B16 mouse melanoma cells (B16-F1) were used. Cells passaged 5-10 times, counting from the time of purchase, were used in the test. As medium, DMEM containing 5 or 10% FBS was used.
A quantity of 500 µL of DMEM medium containing 5% FBS was placed in a 24-well plate, and B16 melanoma cells were seeded 1.4 × 10^4 cells/well ([…]), then cultured for 24 hours at 37°C under 5% CO2. Thereafter, the medium was replaced with 1 mL of 0.5 mM theophylline-containing medium containing a test sample, and the cells were cultured for another three days. […]
After culture was completed, the cells were washed twice with PBS(-) and fixed with 99.5% ethanol. […] After allowing to cool, the entire amount of cell lysate was transferred to a 96-well plate, and the 405 nm absorbance was measured. The intracellular melanin production level per culture well was determined from a calibration curve that used synthetic melanin, and the intracellular melanin production level relative to the control was determined by the following formula. […]
The melanin production-suppressing activity of the obtained fermentation supernatants or unfermented plant extract was measured using B16 melanoma cells in the same way as in Test Example 2. […]

[2] = test system: B16 mouse melanoma cells (B16-F1); test: Melanin production suppression test: intracellular protein level (BCA method); format: cell-based; details: 72 h, three days in 0.5 mM theophylline-containing medium, concentration as evaporation residue concentration, * = estimated value
Procedure: as §1
A quantity of 500 µL of DMEM medium containing 5% FBS was placed in a 24-well plate, and B16 melanoma cells were seeded 1.4 × 10^4 cells/well (7.5 × 10^4 cells/cm^2), then cultured for 24 hours at 37°C under 5% CO2. Thereafter, the medium was replaced with 1 mL of 0.5 mM theophylline-containing medium containing a test sample, and the cells were cultured for another three days.
As the test sample, a fermentation supernatant by each lactic acid bacterium or unfermented Malva sylvestris extract was added to make a blend ratio (volume ratio) of 0.5%, 1%, 2%, or 5% in the medium, taking the undiluted sample solution as 100%. As a control, RO water was added to the medium in the same blend ratios instead of the fermentation supernatant by each lactic acid bacterium or unfermented Malva sylvestris extract. […]
The cell lysate was diluted ten-fold by ultrapure water (milli-Q water) and assayed by the BCA method (Pierce BCA Protein assay kit) using BSA as the reference protein, and the intracellular protein level relative to the control was determined using the following formula. […]

Compound: OC[C@H]1O[C@@H](Oc2ccc(O)cc2)[C@H](O)[C@@H](O)[C@@H]1O [compound 15, Arbutin]
- IC50 [1]: 340 µg/mL (≈ 1250 µM)
- IC50 [2]: 1200 µg/mL (≈ 4410 µM)
